Assay results from ChEMBL document CHEMBL1765006, “Synthesis and biological evaluation of novel 5-benzylidenethiazolidine-2,4-dione derivatives for the treatment of inflammatory diseases” (J Med Chem, 2011).
Active and inactive are the calls of the source. The rule behind the calls is not given here.

Experiments:
[1] = biological target: T1, Nitric oxide synthase, inducible (Mus musculus) (UniProt P29477); test: Inhibition of iNOS-mediated nitric oxide production in LPS-stimulated mouse RAW 264.7 cells treated 2 hrs before LPS challenge measured after 18 hrs by Griess reaction method relative to control; assay type: cell-based; design: concentration or dose not given beside the values; settings: concentration not given here
T1 sequence (whole entry): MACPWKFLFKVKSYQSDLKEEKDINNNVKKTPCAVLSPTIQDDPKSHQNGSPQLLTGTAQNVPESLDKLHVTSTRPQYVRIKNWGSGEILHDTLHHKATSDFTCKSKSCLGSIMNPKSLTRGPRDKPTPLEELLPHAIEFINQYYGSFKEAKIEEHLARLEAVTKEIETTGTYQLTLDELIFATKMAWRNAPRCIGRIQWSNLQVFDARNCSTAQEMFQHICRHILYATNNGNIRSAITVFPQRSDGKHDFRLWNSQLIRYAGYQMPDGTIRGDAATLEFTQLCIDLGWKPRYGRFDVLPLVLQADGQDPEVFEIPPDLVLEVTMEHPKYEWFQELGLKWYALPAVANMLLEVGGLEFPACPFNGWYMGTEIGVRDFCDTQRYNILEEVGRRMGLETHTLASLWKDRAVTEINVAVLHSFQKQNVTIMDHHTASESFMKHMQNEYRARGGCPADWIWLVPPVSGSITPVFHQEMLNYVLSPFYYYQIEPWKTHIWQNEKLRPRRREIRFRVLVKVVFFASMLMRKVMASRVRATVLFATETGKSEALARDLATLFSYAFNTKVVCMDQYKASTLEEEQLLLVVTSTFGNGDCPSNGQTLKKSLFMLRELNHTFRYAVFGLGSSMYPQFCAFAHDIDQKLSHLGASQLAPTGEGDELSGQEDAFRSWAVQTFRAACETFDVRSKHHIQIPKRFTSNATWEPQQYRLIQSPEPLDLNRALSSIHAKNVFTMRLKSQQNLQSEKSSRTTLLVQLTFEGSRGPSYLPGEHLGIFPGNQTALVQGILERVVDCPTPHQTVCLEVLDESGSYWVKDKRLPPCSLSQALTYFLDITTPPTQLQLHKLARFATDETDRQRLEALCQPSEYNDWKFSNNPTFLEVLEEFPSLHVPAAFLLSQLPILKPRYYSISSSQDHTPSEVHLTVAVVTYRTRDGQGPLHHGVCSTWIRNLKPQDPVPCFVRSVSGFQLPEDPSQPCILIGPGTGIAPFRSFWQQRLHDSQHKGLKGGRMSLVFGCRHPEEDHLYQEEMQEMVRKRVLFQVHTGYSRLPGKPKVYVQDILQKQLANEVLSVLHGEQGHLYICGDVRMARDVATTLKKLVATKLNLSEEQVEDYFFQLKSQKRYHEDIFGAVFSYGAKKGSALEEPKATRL

Rattus norvegicus [2] = test: Antiarthritic activity in heat-killed mycobacterium tuberculosis-induced Lewis rat arthritis model assessed as decrease in arthritic score at 50 mg/kg, po QD for 28; assay type: functional, organism-based; design: dose 50 mg/kg
RAW264.7 [3] = test: Cytotoxicity against LPS-stimulated mouse RAW264.7 cells after 24 hrs by MTT assay; assay type: cell-based; settings: RAW264.7, 24 h
RAW264.7 [4] = test: cells; settings: Mus musculus, RAW264.7, 24 h
Description: Cytotoxicity against mouse RAW264.7 cells after 24 hrs by MTT assay

Mus musculus [5] = species on record: Mus musculus; settings: ICR, 10 mg/kg
Description: Antiinflammatory activity against acetic acid-induced vascular permeability in ICR mouse assessed as evans blue peritoneal leakage at 10 mg/kg, ip administered 30 mins before acetic acid challenge measured after 50 mins

[6] = biological target: T2, Nitric oxide synthase, inducible (Mus musculus, UniProt P29477)
T2 sequence (P29477 whole entry): T1 sequence (whole entry)
Description: Inhibition of iNOS in LPS-stimulated mouse RAW 264.7 cells after 2 hrs by fluorescence plate reader analysis

[7] = biological target: T2, Nitric oxide synthase, inducible; remark: listed apart in the source
[8] = biological target: T3, Prostaglandin G/H synthase 2 (Mus musculus, UniProt Q05769); test: Inhibition of COX2-mediated PGE2 production in LPS-stimulated mouse RAW 264.7 cells after 24 hrs by ELISA; assay type: cell-based
T3 sequence (Q05769 whole entry): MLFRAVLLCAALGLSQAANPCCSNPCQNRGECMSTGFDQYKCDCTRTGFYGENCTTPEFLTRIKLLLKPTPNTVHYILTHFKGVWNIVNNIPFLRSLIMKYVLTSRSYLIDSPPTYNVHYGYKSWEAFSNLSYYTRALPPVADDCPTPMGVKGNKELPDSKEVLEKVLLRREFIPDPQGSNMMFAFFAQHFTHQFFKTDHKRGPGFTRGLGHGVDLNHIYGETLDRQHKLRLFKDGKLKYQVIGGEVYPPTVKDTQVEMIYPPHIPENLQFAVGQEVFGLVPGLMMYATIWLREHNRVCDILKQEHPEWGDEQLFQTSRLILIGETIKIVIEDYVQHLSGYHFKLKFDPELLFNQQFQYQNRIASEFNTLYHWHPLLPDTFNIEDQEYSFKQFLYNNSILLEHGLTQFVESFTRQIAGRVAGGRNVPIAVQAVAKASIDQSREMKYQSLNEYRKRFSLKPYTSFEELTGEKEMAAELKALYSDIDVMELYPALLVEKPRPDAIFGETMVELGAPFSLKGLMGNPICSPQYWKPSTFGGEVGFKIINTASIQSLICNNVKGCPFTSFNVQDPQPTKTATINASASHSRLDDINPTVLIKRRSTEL

RAW264.7 [9] = test: Inhibition of LPS-induced iNOS protein expression in mouse RAW264.7 cells treated 2 hrs before LPS challenge measured after 18 hrs by Western blotting; assay type: functional, cell-based
Rattus norvegicus [10] = test: Antiarthritic activity in heat-killed mycobacterium tuberculosis-induced Lewis rat arthritis model assessed as increase in boy weight at 50 mg/kg, po QD for 28 relative to control; assay type: functional
Rattus norvegicus [11] = test: Antiarthritic activity in heat-killed mycobacterium tuberculosis-induced Lewis rat arthritis model assessed as leukocytes infiltreated into synovial tissue and synovial fluid of joints at 50 mg/kg, po QD for 28 using hematoxylin and eosin staining by microscopic analysis; assay type: functional, organism-based; design: dose 50 mg/kg
Mus musculus [12] = test: Antiinflammatory activity in ICR mouse assessed as inhibition of carrageenan-induced paw edema at 10 mg/kg, po administered 30 mins before carrageenan challenge measured up to 5 hrs; assay type: functional
Rattus norvegicus [13] = test: AUC (0 to t) in Sprague-Dawley rat at 10 mg/kg, iv; assay type: ADME, organism-based, Plasma; design: dose 10 mg/kg, route intravenous; settings: in vivo
[14] = Half life in Sprague-Dawley rat at 50 mg/kg, po; assay type: ADME, organism-based; design: dose 50 mg/kg, route oral; settings: in vivo
[15] = Oral bioavailability in Sprague-Dawley rat at 50 mg/kg; assay type: ADME, organism-based; settings: in vivo
[16] = Tmax in Sprague-Dawley rat at 50 mg/kg, po; assay type: ADME, organism-based; design: dose 50 mg/kg, route oral; settings: in vivo
Rattus norvegicus [17] = test: AUC (0 to t) in Sprague-Dawley rat at 50 mg/kg, po; assay type: ADME, organism-based, Plasma; design: dose 50 mg/kg, route oral; settings: in vivo
RAW264.7 [18] = test: Inhibition of LPS-induced COX2 protein expression in mouse RAW264.7 cells at 12 to 24 uM treated 2 hrs before LPS challenge measured after 18 hrs by Western blotting; assay type: functional, cell-based
[19] = Tmax in Sprague-Dawley rat at 10 mg/kg, iv; assay type: ADME, organism-based; design: dose 10 mg/kg, route intravenous; settings: in vivo
[20] = Cmax in Sprague-Dawley rat at 50 mg/kg, po; assay type: ADME, organism-based; design: dose 50 mg/kg, route oral; settings: in vivo
[21] = Cmax in Sprague-Dawley rat at 10 mg/kg, iv; assay type: ADME, organism-based; design: dose 10 mg/kg, route intravenous; settings: in vivo
Mus musculus [22] = test: Antiinflammatory activity in ICR mouse assessed as inhibition of carrageenan-induced paw edema at 50 mg/kg, po administered 30 mins before carrageenan challenge measured up to 5 hrs; assay type: functional
Mus musculus [23] = test: Antiinflammatory activity against acetic acid-induced vascular permeability in ICR mouse assessed as evans blue peritoneal leakage at 10 to 50 mg/kg, ip administered 30 mins before acetic acid challenge measured after 50 mins; assay type: functional, organism-based
[24] = Half life in Sprague-Dawley rat at 10 mg/kg, iv; assay type: ADME, organism-based; design: dose 10 mg/kg, route intravenous; settings: in vivo

Structure (SMILES): O=C(COc1ccc(/C=C2\SC(=O)NC2=O)cc1)Nc1ccc(F)cc1
- inhibition [1]: 57.9%

Structure (SMILES): O=C(COc1ccc(/C=C2\SC(=O)NC2=O)cc1)Nc1ccc(C(F)(F)F)cc1
- inhibition [1]: 26.6%

Structure (SMILES): CN(C(=O)COc1ccc(/C=C2\SC(=O)NC2=O)cc1)c1ccccc1
- inhibition [1]: 51%

Structure (SMILES): Cc1ccc(NC(=O)COc2ccc(/C=C3\SC(=O)NC3=O)cc2)nc1
- inhibition [1]: 12.5%

Structure (SMILES): O=C(COc1ccc(/C=C2\SC(=O)NC2=O)cc1)Nc1ccccn1
- inhibition [1]: 14.6%

Structure (SMILES): COc1ccc2c(c1)c(CC(=O)O)c(C)n2C(=O)c1ccc(Cl)cc1 [INDOMETHACIN]
- inhibition [1]: 63.2%
- Activity (Rattus norvegicus [2]): Active
- IC50 (RAW264.7 [3]): > 100 µM
- IC50 (RAW264.7 [4]): > 100 µM
- inhibition (Mus musculus [5]): Active

Structure (SMILES): O=C(COc1ccc(/C=C2\SC(=O)NC2=O)cc1)Nc1cc(Cl)cc(Cl)c1
- inhibition [1]: 72%
- IC50 [6]: 57.4 µM
- IC50 (RAW264.7 [3]): > 100 µM
- IC50 [7]: 26.1 µM
- IC50 [8]: 14.8 µM
- IC50 (RAW264.7 [4]): > 100 µM

Structure (SMILES): CC(=O)c1ccc(NC(=O)COc2ccc(/C=C3\SC(=O)NC3=O)cc2)cc1
- inhibition [1]: 10.2%

Structure (SMILES): O=C(COc1ccc(/C=C2\SC(=O)NC2=O)cc1)NCc1ccccc1
- inhibition [1]: 41.6%

Structure (SMILES): O=C(COc1ccc(/C=C2\SC(=O)NC2=O)cc1)Nc1cccc(F)c1
- inhibition [1]: 41.5%

Structure (SMILES): O=C(COc1ccc(/C=C2\SC(=O)NC2=O)cc1)Nc1cccc(Cl)c1
- inhibition (RAW264.7 [9]): Dose-dependent effect
- Activity (Rattus norvegicus [10]): 15.1%
- Activity (Rattus norvegicus [11]): Active
- inhibition [1]: 80.9%
- inhibition (Mus musculus [12]): Active
- inhibition in vivo at 10 mg/kg (Mus musculus [12]): 33.3%
- IC50 [6]: 23.6 µM
- AUC (Rattus norvegicus [13]): 11.05 uM.hr/L
- half-life [14]: 130 min
- bioavailability [15]: 18.1%
- IC50 (RAW264.7 [3]): > 100 µM
- Tmax [16]: 10.8 min
- IC50 [7]: 8.66 µM
- AUC (Rattus norvegicus [17]): 10 uM.hr/L
- inhibition (RAW264.7 [18]): Active
- Tmax [19]: 4.8 min
- IC50 [8]: 4.16 µM
- Cmax [20]: 15.3 µM
- Cmax [21]: 27 µM
- inhibition in vivo at 50 mg/kg (Mus musculus [22]): 36.2%
- inhibition (Mus musculus [23]): inactive
- IC50 (RAW264.7 [4]): > 100 µM
- half-life [24]: 16.8 min

Structure (SMILES): O=C(COc1ccc(/C=C2\SC(=O)NC2=O)cc1)Nc1ccc2ccccc2c1
- inhibition [1]: 45.1%

Structure (SMILES): O=C(COc1ccc(/C=C2\SC(=O)NC2=O)cc1)Nc1ccccc1
- inhibition [1]: 55.3%

Structure (SMILES): O=C(COc1ccc(/C=C2\SC(=O)NC2=O)cc1)Nc1ccc(F)c(Cl)c1
- inhibition [1]: 36%

Structure (SMILES): O=C(COc1ccc(/C=C2\SC(=O)NC2=O)cc1)Nc1ccc(Cl)cc1
- inhibition [1]: 9.7%

Structure (SMILES): COc1ccc(NC(=O)COc2ccc(/C=C3\SC(=O)NC3=O)cc2)cc1OC
- inhibition [1]: 16.2%

Structure (SMILES): O=C(COc1ccc(/C=C2\SC(=O)NC2=O)cc1)Nc1ccc(F)c(F)c1
- inhibition [1]: 83.9%
- IC50 [6]: 34.1 µM
- IC50 (RAW264.7 [3]): > 100 µM
- IC50 [7]: 13.9 µM
- IC50 [8]: 7.12 µM
- IC50 (RAW264.7 [4]): > 100 µM

Structure (SMILES): O=C(COc1ccc(/C=C2\SC(=O)NC2=O)cc1)Nc1ccc(Cl)cc1Cl
- inhibition [1]: 10%

Structure (SMILES): Cc1ccc(NC(=O)COc2ccc(/C=C3\SC(=O)NC3=O)cc2)cc1
- inhibition [1]: 38.4%

Structure (SMILES): O=C(COc1ccc(/C=C2\SC(=O)NC2=O)cc1)Nc1cccc2ccccc12
- inhibition [1]: 70.9%
- IC50 [6]: 40 µM
- IC50 (RAW264.7 [3]): 55 µM
- IC50 [7]: 20.9 µM
- IC50 [8]: 16.1 µM
- IC50 (RAW264.7 [4]): 62.3 µM

Structure (SMILES): COc1ccc(NC(=O)COc2ccc(/C=C3\SC(=O)NC3=O)cc2)cc1
- inhibition [1]: 0.6%

Structure (SMILES): O=C(COc1ccc(/C=C2\SC(=O)NC2=O)cc1)Nc1ccc(Br)cc1
- inhibition [1]: 23.7%

Structure (SMILES): O=C(COc1ccc(/C=C2\SC(=O)NC2=O)cc1)NC1CCCCC1
- inhibition [1]: 47.8%
